Test results as given in patent US20260199323A1, “LIGAND COMPOUNDS FOR E3 UBIQUITIN LIGASE, PROTEIN DEGRADERS DEVELOPED ON BASIS OF LIGAND COMPOUNDS, AND USES THEREOF” (GLUETACS THERAPEUTICS (SHANGHAI) CO., LTD., priority 2021, published 2026).
Like-named read-outs stand apart in the source and are kept apart here.

Legend:
Type in all cases: cell-based, Human
[1] = tested on: T47D; assay: CCK-8 tumor cell proliferation, T47D; details: Table 8, designed based on ER inhibitors; 96 h
Method: (§1) The tumor cells used herein were cultured in a cell culture medium listed in table 4 at 37° C. in an incubator with 5% CO2. Prior to experimentation, all cells used were correctly identified by STR profiling, and tested negative for mycoplasma through routine screenings.
(§2) IC50 values of the compounds of the present disclosure (including the compounds in Tables 1 and 3, and compounds of examples) were measured using the Meilun Cell Counting Kit-8 kit from Dalian Meilun Biotech Co., Ltd. Assay details are as follows: tumor cells were seeded in a 96-well plate at a density listed in Table 5. After 24 h, 100 μL of the inoculated cells were treated with 0.5 μL of the compounds of the present disclosure (including the compounds in Tables 1 and 3, and compounds of examples) at 10 different successively decreasing concentrations (starting at the highest concentration of 10 μM; 5-fold serial dilutions). After the cells were treated with the compounds of the present disclosure for a period of time, the cell viability detection reagent was added to the culture medium for cell viability assessment according to the instructions provided with the CCK-8 kit. […] The growth inhibition of the compounds of the present disclosure on cells was plotted by Prism Graphpad software, and the IC50 values of the compounds of the present disclosure were calculated therefrom.

[2] = tested on: Mino; assay: CCK-8 tumor cell proliferation, Mino; details: Homo sapiens; Table 18, FAK inhibitor based; Mino; read-out: IC50 inhibiting proliferation of tumor cells, Mino
Outline: (§3)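 Using the CCK-8 kit, viability of plated cells is assessed after exposure to compound across ten concentrations (5-fold serial dilution, top 10 μM) added at 24 h. IC50 is obtained by curve fitting of growth inhibition.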

[3] = tested on: SW620; assay: CCK-8 tumor cell proliferation, SW620; details: Homo sapiens, SW-620, SW620, read-out: IC50 inhibiting proliferation of tumor cells, SW620
Outline: as §3

[4] = tested on: MDA-MB-231; assay: CCK-8 tumor cell proliferation, MDA-MB-231; details: Homo sapiens; Table 18, FAK inhibitor based; MDA-MB-231; read-out: IC50 inhibiting proliferation of tumor cells, MDA-MB-231
Outline: as §3

[5] = tested on: PC-9; assay: CCK-8 tumor cell proliferation, PC-9; details: Homo sapiens; Table 18, FAK inhibitor based; PC-9; read-out: IC50 inhibiting proliferation of tumor cells, PC-9
[6] = tested on: SR; assay: CCK-8 tumor cell proliferation, SR; details: Homo sapiens; Table 18, FAK inhibitor based; SR; read-out: IC50 inhibiting proliferation of tumor cells, SR
Outline: as §3

[7] = tested on: HGC-27; assay: CCK-8 tumor cell proliferation, HGC-27; details: Homo sapiens; Table 18, FAK inhibitor based; HGC-27; read-out: IC50 inhibiting proliferation of tumor cells, HGC-27
Method: as §1, §2

[8] = tested on: CCRF-CEM; assay: CCK-8 tumor cell proliferation, CCRF-CEM; details: Homo sapiens, CCRF-CEM, read-out: IC50 inhibiting proliferation of tumor cells, CCRF-CEM
Outline: as §3

[9] = tested on: Jurkat; assay: CCK-8 tumor cell proliferation, Jurkat; details: Homo sapiens, Table 19, IRAK4 inhibitor based, read-out: IC50 inhibiting proliferation of tumor cells, Jurkat
Outline: as §3

[10] = tested on: SU-DHL-4; assay: CCK-8 tumor cell proliferation, SU-DHL-4; details: Homo sapiens, Table 19, IRAK4 inhibitor based, read-out: IC50 inhibiting proliferation of tumor cells, SU-DHL-4
Method: as §1, §2

[11] = tested on: LNcap; assay: CCK-8 tumor cell proliferation, LNcap; details: Homo sapiens; Table 19, IRAK4 inhibitor based; Lncap; read-out: IC50 inhibiting proliferation of tumor cells, Lncap
Outline: as §3

[12] = tested on: CAL-62; assay: CCK-8 tumor cell proliferation, CAL-62; details: Homo sapiens; Table 19, IRAK4 inhibitor based; CAL-62; read-out: IC50 inhibiting proliferation of tumor cells, CAL-62
Outline: as §3

[13] = Table 19, IRAK4 inhibitor based

| Structure (SMILES) | IC50 for inhibiting the proliferation of tumor cells, T47D [1] | IC50 [2] [nM] | IC50 ([3]; Table 18, FAK inhibitor based) [nM] | IC50 [4] [nM] | IC50 [5] [nM] | IC50 [6] [nM] | IC50 [7] [nM] | IC50 ([8]; Table 18, FAK inhibitor based) [nM] | IC50 [9] [nM] | IC50 [3, 13] [nM] | IC50 [10] [nM] | IC50 [11] [nM] | IC50 [12] [nM] | IC50 [8, 13] [nM] |
| --- | --- | --- | --- | --- | --- | --- | --- | --- | --- | --- | --- | --- | --- | --- |
| CN(CCOc1ccc(/C(=C(/CCCl)c2ccccc2)c2ccccc2)cc1)Cc1ccc2c(c1)CN(C1CCC(=O)NC1=O)C2=O (stereo not shown) [GT-02970, (Z)-3-(5-(((2-(4-(4-chloro-1,2-diphenylbut-1-en-1-yl)phenoxy)ethyl)(methyl)amino)methyl)-1-oxoisoindolin-2-yl)piperidine-2,6-dione] | A+ |  |  |  |  |  |  |  |  |  |  |  |  |  |
| CNC(=O)c1ccccc1Nc1cc(Nc2ccc(N3CCN(Cc4ccc5c(c4)CN(C4CCC(=O)NC4=O)C5=O)CC3)cc2OC)ncc1C(F)(F)F (stereo not shown) [GT-03014, 2-((2-((4-(4-((2-(2,6-dioxopiperidin-3-yl)-1-oxoisoindolin-5-yl)methyl)piperazin-1-yl)-2-methoxyphenyl)amino)-5-(trifluoromethyl)pyridin-4-yl)amino)-N-methylbenzamide] |  | < 50 | < 50 | 50 to 100 | 1000 to 5000 | 100 to 500 | 1000 to 5000 | < 50 |  |  |  |  |  |  |
| CNC(=O)c1ccccc1Nc1cc(Nc2ccc(N3CCC(NCc4ccc5c(c4)CN(C4CCC(=O)NC4=O)C5=O)CC3)cc2OC)ncc1C(F)(F)F (stereo not shown) [GT-03213, 2-((2-((4-(4-(((2-(2,6-dioxopiperidin-3-yl)-1-oxoisoindolin-5-yl)methyl)amino)piperidin-1-yl)-2-methoxyphenyl)amino)-5-(trifluoromethyl)pyridin-4-yl)amino)-N-methylbenzamide] |  |  | 500 to 1000 | < 50 | 500 to 1000 | < 50 | 500 to 1000 | 100 to 500 |  |  |  |  |  |  |
| CNC(=O)c1ccccc1Nc1cc(Nc2ccc(N3CCC(N4CCN(Cc5ccc6c(c5)CN(C5CCC(=O)NC5=O)C6=O)CC4)CC3)cc2OC)ncc1C(F)(F)F (stereo not shown) [GT-03266, 2-((2-((4-(4-(4-((2-(2,6-dioxopiperidin-3-yl)-1-oxoisoindolin-5-yl)methyl)piperazin-1-yl)piperidin-1-yl)-2-methoxyphenyl)amino)-5-(trifluoromethyl)pyridin-4-yl)amino)-N-methylbenzamide] |  | 1000 to 5000 | 100 to 500 | 100 to 500 | 100 to 500 | 50 to 100 | 500 to 1000 | 100 to 500 |  |  |  |  |  |  |
| CNC(=O)c1ccccc1Nc1cc(Nc2ccc(N3CCC(N4CCN(Cc5ccc6c(c5F)CN(C5CCC(=O)NC5=O)C6=O)CC4)CC3)cc2OC)ncc1C(F)(F)F (stereo not shown) [GT-03595, 2-((2-((4-(4-(4-((2-(2,6-dioxopiperidin-3-yl)-4-fluoro-1-oxoisoindolin-5-yl)methyl)piperazin-1-yl)piperidin-1-yl)-2-methoxyphenyl)amino)-5-(trifluoromethyl)pyridin-4-yl)amino)-N-methylbenzamide] |  |  |  | 100 to 500 | 500 to 1000 | < 50 | 100 to 500 | 100 to 500 |  |  |  |  |  |  |
| CNC(=O)c1ccccc1Nc1cc(Nc2ccc(N3CCC(N4CCN(Cc5cc6c(cc5F)C(=O)N(C5CCC(=O)NC5=O)C6)CC4)CC3)cc2OC)ncc1C(F)(F)F (stereo not shown) [GT-03596, 2-((2-((4-(4-(4-((2-(2,6-dioxopiperidin-3-yl)-6-fluoro-1-oxoisoindolin-5-yl)methyl)piperazin-1-yl)piperidin-1-yl)-2-methoxyphenyl)amino)-5-(trifluoromethyl)pyridin-4-yl)amino)-N-methylbenzamide] |  |  |  | 500 to 1000 | 1000 to 5000 | 50 to 100 | 500 to 1000 | 100 to 500 |  |  |  |  |  |  |

Next, values leading:

| IC50 for inhibiting the proliferation of tumor cells, T47D [1] | IC50 [2] [nM] | IC50 ([3]; Table 18, FAK inhibitor based) [nM] | IC50 [4] [nM] | IC50 [5] [nM] | IC50 [6] [nM] | IC50 [7] [nM] | IC50 ([8]; Table 18, FAK inhibitor based) [nM] | IC50 [9] [nM] | IC50 [3, 13] [nM] | IC50 [10] [nM] | IC50 [11] [nM] | IC50 [12] [nM] | IC50 [8, 13] [nM] | Structure (SMILES) |
| --- | --- | --- | --- | --- | --- | --- | --- | --- | --- | --- | --- | --- | --- | --- |
|  |  |  | 500 to 1000 | 500 to 1000 | 50 to 100 | 500 to 1000 | 100 to 500 |  |  |  |  |  |  | CNC(=O)c1ccccc1Nc1cc(Nc2ccc(N3CCC(N4CCN(Cc5cc(F)c6c(c5)CN(C5CCC(=O)NC5=O)C6=O)CC4)CC3)cc2OC)ncc1C(F)(F)F (stereo not shown) [GT-03597, 2-((2-((4-(4-(4-((2-(2,6-dioxopiperidin-3-yl)-7-fluoro-1-oxoisoindolin-5-yl)methyl)piperazin-1-yl)piperidin-1-yl)-2-methoxyphenyl)amino)-5-(trifluoromethyl)pyridin-4-yl)amino)-N-methylbenzamide] |
|  |  |  |  |  |  |  |  | < 50 | < 50 | < 50 | < 50 | < 50 | < 50 | O=C1CCC(N2Cc3c(ccc(CN4CCC(n5cc(NC(=O)c6coc(-c7ccnc(NCC8CC8)c7)n6)c(C(F)F)n5)CC4)c3F)C2=O)C(=O)N1 (stereo not shown) [GT-04154, 2-(2-((cyclopropylmethyl)amino)pyridin-4-yl)-N-(3-(difluoromethyl)-1-(1-((2-(2,6-dioxopiperidin-3-yl)-4-fluoro-1-oxoisoindolin-5-yl)methyl)piperidin-4-yl)-1H-pyrazol-4-yl)oxazole-4-carboxamide] |
|  |  |  |  |  |  |  |  | < 50 | < 50 | < 50 | < 50 | < 50 | < 50 | O=C1CCC(N2Cc3cc(CN4CCC(n5cc(NC(=O)c6coc(-c7ccnc(NCC8CC8)c7)n6)c(C(F)F)n5)CC4)c(F)cc3C2=O)C(=O)N1 (stereo not shown) [GT-04171, 2-(2-((cyclopropylmethyl)amino)pyridin-4-yl)-N-(3-(difluoromethyl)-1-(1-((2-(2,6-dioxopiperidin-3-yl)-6-fluoro-1-oxoisoindolin-5-yl)methyl)piperidin-4-yl)-1H-pyrazol-4-yl)oxazole-4-carboxamide] |
|  |  |  |  |  |  |  |  | < 50 | < 50 | 100 to 500 | < 50 | < 50 | < 50 | O=C1CCC(N2Cc3cc(CN4CCC(n5cc(NC(=O)c6coc(-c7ccnc(NCC8CC8)c7)n6)c(C(F)F)n5)CC4)cc(F)c3C2=O)C(=O)N1 (stereo not shown) [GT-04172, 2-(2-((cyclopropylmethyl)amino)pyridin-4-yl)-N-(3-(difluoromethyl)-1-(1-((2-(2,6-dioxopiperidin-3-yl)-7-fluoro-1-oxoisoindolin-5-yl)methyl)piperidin-4-yl)-1H-pyrazol-4-yl)oxazole-4-carboxamide] |
|  | 500 to 1000 | < 50 | 1000 to 5000 | 500 to 1000 | 100 to 500 | 1000 to 5000 | 500 to 1000 |  |  |  |  |  |  | CNC(=O)c1ccccc1Nc1cc(Nc2ccc(N3CCOCC3)cc2OC)ncc1C(F)(F)F [PND-1186, reference compound] |
